Assay: xn = mol fraction of the nth substance listed
Details: 93.2 kPa, Liquid; for speed of sound: Frequency=3 MHz, Sing-around technique in a fixed-path interferometer; for mass density: Vibrating tube method

CCCC(=O)[O-].CCCC[NH3+] [n-butylammonium butanoate] + CO
Details	mass density, 293.15 K [kg/m3]	mass density, 298.15 K [kg/m3]	mass density, 303.15 K [kg/m3]	mass density, 308.15 K [kg/m3]	mass density, 313.15 K [kg/m3]	speed of sound, 293.15 K [m/s]	speed of sound, 298.15 K [m/s]	speed of sound, 303.15 K [m/s]	speed of sound, 308.15 K [m/s]	speed of sound, 313.15 K [m/s]
x1 = 0.0503	827.536	823.196	818.837	814.456	810.048	1187.9	1171.5	1155.3	1139.3	1123.3
x1 = 0.0999	850.303	846.198	842.076	837.934	833.767	1233.9	1217.6	1201.5	1185.5	1169.7
x1 = 0.1491	866.376	862.414	858.459	854.49	850.482	1268.2	1251.9	1235.9	1219.9	1204.1
x1 = 0.2011	878.773	874.958	871.116	867.265	863.431	1295.6	1279.4	1263.3	1247.4	1231.6
x1 = 0.2525	888.142	884.423	880.696	876.953	873.199	1316.7	1300.5	1284.4	1268.5	1252.7
x1 = 0.3057	895.564	891.923	888.274	884.609	880.93	1333.9	1317.8	1301.7	1285.8	1270
x1 = 0.3476	900.631	896.968	893.253	889.68	886.019	1345.6	1329.3	1313.2	1297.2	1281.4
x1 = 0.3966	905.316	901.759	898.192	894.632	891.1	1356.4	1340.1	1324	1308	1292.1
x1 = 0.4491	909.413	905.905	902.401	898.901	895.415	1366.1	1349.7	1333.5	1317.5	1301.7
x1 = 0.501	912.93	909.441	905.946	902.476	899.051	1374.4	1358	1341.8	1325.7	1310
x1 = 0.541	915.316	911.864	908.414	904.968	901.531	1380.2	1363.7	1347.4	1331.3	1315.4
x1 = 0.5913	917.715	914.276	910.846	907.442	904.079	1386	1369.4	1353.1	1336.9	1321
x1 = 0.6445	920.109	916.724	913.329	909.923	906.495	1391.7	1374.9	1358.5	1342.3	1326.3
x1 = 0.6895	921.905	918.523	915.128	911.737	908.371	1396.6	1379.8	1363.2	1346.9	1330.8
x1 = 0.7391	923.626	920.287	916.93	913.559	910.183	1401.3	1384.2	1367.4	1350.9	1334.8
x1 = 0.8007	925.47	922.166	918.855	915.534	912.194	1407.1	1389.5	1372.5	1355.8	1339.5
x1 = 0.8243	926.211	922.909	919.611	916.299	912.971	1409.6	1391.8	1374.6	1357.8	1341.4
x1 = 0.8973	927.898	924.584	921.292	918.007	914.707	1416.7	1398	1380.2	1362.9	1346.2
x1 = 0.932	928.804	925.491	922.195	918.913	915.625	1420.3	1401.2	1383	1365.5	1348.5
x1 = 1	928.794	925.509	922.217	918.88	915.567	1431.5	1410.3	1390.4	1371.5	1353.6

From the NIST ThermoML archive (doi:10.1016/j.jct.2016.09.007)
